Reference: paper PMC4823038 (Oncotarget, 2015)
Like-named read-outs stand apart in the source and are kept apart here.

How the values were obtained:
[1] = Pharmacokinetics in BALB/c mice; assay type: in vivo; conditions: for bioavailability: BALB/c, 10mg/kg p.o. vs i.v., read-out: oral bioavailability (F)
Procedure: (§1) Human tumor xenografts were established s.c. in female […]) athymic mice and treated as previously described. […] Compounds were extracted from whole blood, plasma and tissue homogenates with methanol-containing internal standards using established protocols. Drug concentrations were determined using liquid chromatography/tandem mass spectrometry (LC/MS-MS) and pharmacokinetics were calculated using Pharsight WinNonLin software (version 5.2.1) as previously described.

[2] = tested on: pS296 CHK1 in HT29 colon tumor cells; assay: Western blot of gemcitabine-induced biomarkers in cells; assay type: cell-based, human; conditions: added to gemcitabine
Procedure: (§2) Western blotting was carried out as described. ELISA assays for pS296 CHK1 and total CHK1 were developed and validated for use in vitro and in tumor homogenates. Tumor samples for ELISA and western blotting were lysed in CHAPS buffer (1% CHAPS in 150mM NaCl, 50mM Tris-HCl pH 8.0, 1mM EDTA, 0.2mM PMSF and 1:50 Sigma Phosphatase inhibitors 2 and 3 and 1:100 Sigma protease cocktail) and immunoblotted. ELISA assays were based on commercially available kits with modifications (Cell Signalling Technologies). For pS296 CHK1 detection the commercial pS317 CHK1 antibody was replaced with a pS296 CHK1 antibody (Cell Signalling Technology). Xenograft tumor homogenate was added in duplicate to 96 well plates (100μl containing 40ug protein) and quantification of the colorimetric readout was determined at 450nm using a PerkinElmer 2103 EnVision Multilabel plate reader.

Plasma protein binding = assay type: in vitro ADME; conditions: mouse, nude mice
[3] = tested on: pS296 CHK1 in Calu6 xenograft tumors; assay: PD biomarkers in Calu6 xenograft tumors (western blot); assay type: in vivo, mice; conditions: Calu6 xenografts, 6h after last dose of CCT245737 150mg/kg p.o.
Procedure: as §2

Calu6 = assay: Mitosis induction assay (MIA), abrogation of etoposide-induced G2 checkpoint; assay type: cell-based; conditions: Homo sapiens, Calu-6, mean±SD
Procedure: (§3) Assays were performed as described. […] Inhibition of intracellular CHK1 activity was measured using a cell based ELISA for the abrogation of an etoposide induced G2 checkpoint (mitosis induction assay, MIA [24]). The IC50 for G2 checkpoint abrogation (MIA) was determined in the presence of nocodazole using UCN01 as a positive control. […] PI values > 1 indicate potentiation of the genotoxic activity.

HT29 = assay: as above; assay type: cell-based; conditions: Homo sapiens, HT-29, mean±SD
Procedure: as §3

SW620 = assay: as above; assay type: cell-based; conditions: Homo sapiens, SW-620, mean±SD
Procedure: as §3

[4] = tested on: HT29 human colon tumor xenografts; assay: Antitumor study, HT29 human colon tumor xenografts; conditions: HT29
Procedure: (§4) Compound tolerability and pharmacokinetic investigations were carried out in female BALB/c mice (Charles River). Human tumor xenografts were established s.c. in female CRTac:Ncr-Fox1(nu) athymic mice and treated as previously described. […] Initial treatment groups contained from 6 to 10 mice and animals were inspected daily and tumor size and volume measured every 2 or 3 days. Tumor volume and growth delay were determined as previously described.

[5] = tested on: SW620 colon cancer xenografts; assay: Antitumor study, SW620 colon cancer xenografts; assay type: in vivo, mice
Procedure: as §4

[6] = tested on: pS296 CHK1 in HT29 tumor xenografts; assay: PK-PD biomarker study in HT29 tumor xenografts; assay type: in vivo, mice; conditions: 50 or 100mg/kg p.o. 24h after gemcitabine 100mg/kg i.v.; P < 0.05
Procedure: as §2

[7] = tested on: four human tumor cell lines; assay: SRB cytotoxicity, range over four cell lines; assay type: cell-based; conditions: read-out: GI50 single-agent, range
[8] = tested on: Calu6 RAS mutant NSCLC human tumor xenograft; assay: Antitumor study, Calu6 RAS mutant NSCLC xenografts; assay type: in vivo, mice
Procedure: Compound tolerability and pharmacokinetic investigations were carried out in female BALB/c mice (Charles River). Human tumor xenografts were established s.c. in female CRTac:Ncr-Fox1(nu) athymic mice and treated as previously described [24, 28]. […] Initial treatment groups contained from 6 to 10 mice and animals were inspected daily and tumor size and volume measured every 2 or 3 days. Tumor volume and growth delay were determined as previously described [28].

[9] = tested on: HT29 colon carcinoma cells; assay: Cell cycle analysis (BrdU/PI); assay type: cell-based, human
Description: Cell cycle analysis using propidium iodide and bromodeoxyuridine staining was as described.

[10] = Tumor drug concentration in HT29 xenografts; assay type: in vivo, mice; conditions: female, CRTac:Ncr-Fox1(nu) athymic, mouse, oral, 24h following 12.5mg/kg p.o., with gemcitabine
Procedure: as §1

CHK2 = biological target: T1, CHK2 (Homo sapiens, UniProt O96017); assay: CHK2 kinase IC50 determination (Z'-Lyte); assay type: biochemical
T1 construct: purchased Invitrogen
T1 sequence (O96017 whole entry): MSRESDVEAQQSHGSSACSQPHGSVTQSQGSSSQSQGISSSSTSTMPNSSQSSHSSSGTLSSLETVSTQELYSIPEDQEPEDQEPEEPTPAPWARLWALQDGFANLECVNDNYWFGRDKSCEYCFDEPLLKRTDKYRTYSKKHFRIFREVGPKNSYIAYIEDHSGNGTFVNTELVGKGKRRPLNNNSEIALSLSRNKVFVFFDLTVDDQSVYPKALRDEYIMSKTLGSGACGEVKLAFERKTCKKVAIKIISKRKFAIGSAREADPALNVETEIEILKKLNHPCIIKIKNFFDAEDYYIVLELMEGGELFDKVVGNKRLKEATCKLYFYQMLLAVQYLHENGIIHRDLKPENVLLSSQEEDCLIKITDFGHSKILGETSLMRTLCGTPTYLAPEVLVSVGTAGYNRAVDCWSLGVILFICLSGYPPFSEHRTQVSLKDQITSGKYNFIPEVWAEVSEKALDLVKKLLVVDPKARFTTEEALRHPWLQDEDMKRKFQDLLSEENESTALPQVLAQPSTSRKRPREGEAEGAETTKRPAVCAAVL
Procedure: (§5) Other kinase IC50 determinations for CHK2 and FLT3 were performed using a commercial assay (Z'-Lyte, Invitrogen) or in-house with recombinant human CHK1 on a LabChip® EZ Reader II (PerkinElmer) or CDK1 in a DELFIA assay (PerkinElmer).

CDK1 = CDK1 (Homo sapiens, UniProt P06493); assay: CDK1 kinase IC50 determination (DELFIA / 33P radiometric); assay type: biochemical
CDK1, sequence (P06493 whole entry): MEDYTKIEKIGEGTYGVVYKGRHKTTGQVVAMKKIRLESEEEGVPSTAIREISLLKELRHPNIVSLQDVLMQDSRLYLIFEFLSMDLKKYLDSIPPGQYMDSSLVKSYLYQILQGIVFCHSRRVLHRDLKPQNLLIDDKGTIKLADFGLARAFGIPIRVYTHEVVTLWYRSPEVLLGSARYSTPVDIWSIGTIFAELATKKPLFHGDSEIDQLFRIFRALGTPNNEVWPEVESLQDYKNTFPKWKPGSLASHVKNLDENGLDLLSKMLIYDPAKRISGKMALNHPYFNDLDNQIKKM
CDK1, sequence (P14635 whole entry partner): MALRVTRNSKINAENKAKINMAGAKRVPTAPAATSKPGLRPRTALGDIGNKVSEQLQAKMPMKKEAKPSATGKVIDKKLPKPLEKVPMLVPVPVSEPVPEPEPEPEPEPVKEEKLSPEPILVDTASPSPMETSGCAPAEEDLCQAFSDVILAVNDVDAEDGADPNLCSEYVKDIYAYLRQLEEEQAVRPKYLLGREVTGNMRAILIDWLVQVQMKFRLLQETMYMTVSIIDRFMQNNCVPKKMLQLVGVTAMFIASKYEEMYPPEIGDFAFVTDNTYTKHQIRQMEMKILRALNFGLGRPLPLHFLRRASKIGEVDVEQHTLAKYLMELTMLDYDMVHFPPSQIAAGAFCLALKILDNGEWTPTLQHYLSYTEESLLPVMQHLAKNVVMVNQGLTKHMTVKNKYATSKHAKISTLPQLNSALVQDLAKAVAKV
Procedure: as §5

[11] = tested on: Eμ-Myc driven B-cell lymphoma; assay: Eμ-Myc driven transgenic mouse transplant model of B-cell lymphoma; assay type: in vivo, mice; conditions: 150mg/kg p.o. once daily for 9 days
Description: Transgenic Eμ-Myc mice which develop aggressive infiltrating lymphoma were established and monitored as previously described. To generate transgenic Eμ-Myc driven lymphoma allografts, tumor cells from 3 separate tumors were harvested, cells counted and injected via a tail vein. Six mice were set up per tumor to provide 3 control and 3 treated animals, giving a maximum of 9 mice per treatment group. Animals were monitored daily and continuously using RFID transponders to measure temperature, activity and water consumption as previously described. […] Bone marrow cellularity was also determined to check for tumor cell involvement. All mice were handled in compliance with local and national animal welfare guidelines.

[12] = tested on: cellular CHK1 activity, four cell lines; assay: MIA, range over four cell lines; assay type: cell-based; conditions: Homo sapiens, read-out: IC50 for cellular CHK1 inhibition (MIA), range
Procedure: as §3

[13] = Permeability across CaCo2 cell monolayer; assay type: in vitro ADME
124 human kinases = assay: 33P radiometric kinase profiling; assay type: biochemical; conditions: 10μM, 124 kinases, ATP at Km
Eμ-Myc driven lymphoma = tested on: Eμ-Myc driven lymphoma; design: method as in PMID 22120667; conditions: 5mg/kg × 9 days; cited from earlier work
[14] = Antitumor study, HT29 human colon tumor xenografts; conditions: female, mouse, in vivo, iv
Procedure: as §4

SMILES: N#Cc1cnc(Nc2cc(NC[C@H]3CNCCO3)c(C(F)(F)F)cn2)cn1 [CCT245737, (R)-5-((4-((morpholin-2-ylmethyl)amino)-5-(trifluoromethyl)pyridin-2-yl)amino)pyrazine-2-carbonitrile]
- kinetics in whole blood (AUC vs dose) ([1]; BALB/c mice): linear kinetics
- plasma clearance ([1]; BALB/c mice, 10mg/kg i.v.): 35 mL/min/kg
- volume of distribution ([1]; BALB/c mice, 10mg/kg i.v.): 0.19 L
- half-life ([1]; BALB/c mice, 10mg/kg i.v., plasma): 2.86 h
- bioavailability ([1]; female, plasma, oral, mouse): 100%
- bioavailability ([1]; female, plasma, po, mouse): 105%
- Kp ([1]; female, mouse, spleen, other: both routes of administration (i.v. and p.o.), 10 mg/kg, BALB/c mice, both routes of administration, read-out: spleen concentration relative to plasma): 10 to 25
- concentration causing marked loss of pS296 signal [2]: ≥ 0.5 μM
- concentration giving complete inhibition of pS296 signal [2]: ≥ 2 μM
- fraction unbound at 10 μM (Plasma protein binding): 0.244
- gemcitabine + carboplatin induced pS296 CHK1 signal in tumor [3]: completely abolished
- IC50 (Calu6): 84 ± 7 nM
- IC50 (HT29): 30 ± 12 nM
- IC50 (SW620): 220 ± 47 nM
- growth delay ([4]; alone, 150mg/kg p.o. days 1,2,5,6,9,10 (irinotecan study), mean±SD): 1.0 ± 1.0 days
- growth delay ([4]; alone, 150mg/kg p.o. days 1,2,8,9,15,16, mean±SD): 0.3 ± 3.4 days
- body weight loss ([5]; combination with gemcitabine, day 9): 4.3%
- gemcitabine-induced pS296 CHK1 signal in tumor [6]: significantly reduced
- GI50 [7]: 410 to 5400 nM
- increase in tumor growth delay ([8]; CCT245737 150mg/kg p.o. added to gemcitabine 100mg/kg i.v. + carboplatin 5mg/kg i.p., P < 0.001): 9 days
- weight loss ([8]; combination with gemcitabine + carboplatin, nadir on day 3): 2%
- effect on etoposide-induced G2/M block ([9]; after etoposide 50μM × 1h, increasing concentrations, 24h): abrogated this G2/M block
- effect on cell cycle distribution, alone ([9]; up to 0.5μM for 24h): minimal effects
- concentration at 24 h [10]: ≥ 3000 nM
- IC50 (CHK2): 9030 nM
- IC50 (CDK1): 1260 to 2440 nM
- effects on normal tissues (lung, bone marrow, kidney) [11]: minimal effects
- tolerability (body weights) [11]: well tolerated
- weight of inguinal, brachial/axillary and mesenteric lymph nodes vs vehicle ([11]; P < 0.05): significantly reduced
- spleen weight ([11]; p < 0.01): increased significantly
- IC50 [12]: 30 to 220 nM
- Papp ([13]; human, Caco-2, CaCo2 cell monolayer, read-out: cell permeability Pe): 25 ×10⁻⁶ cm/s
- active efflux by PGP ([13]; no asymmetry apical > basal or basal > apical): not a substrate for active efflux by PGP
- number of kinases (including CHK1) with > 80% inhibition (124 human kinases): 12 kinases

SMILES: CN[C@@H]1C[C@H]2O[C@@](C)([C@@H]1OC)n1c3ccccc3c3c4c(c5c6ccccc6n2c5c31)C(=O)N[C@H]4O [UCN01]
- antitumor activity in Eμ-Myc model (Eμ-Myc driven lymphoma): clear evidence of tumor growth inhibition
- blood cell count (Eμ-Myc driven lymphoma): decreased blood cell count

SMILES: Nc1ccn([C@@H]2O[C@H](CO)[C@@H](O)C2(F)F)c(=O)n1 [gemcitabine]
- MTD [14]: 200 mg/kg
- growth delay ([4]; alone, 100mg/kg i.v. days 0,7,14, mean±SD (Figure 3A)): -0.6 ± 2.7 days
- growth delay ([4]; gemcitabine alone at the MTD of 200mg/kg i.v. (Figure 3B)): 6 days
- growth delay ([4]; gemcitabine alone, fixed dose 100mg/kg i.v. (Figure 3B)): 3 days
- growth delay ([5]; gemcitabine alone 100mg/kg i.v. days 0,4,8): 1.5 ± 2.3 days

SMILES: CCc1c2c(nc3ccc(OC(=O)N4CCC(N5CCCCC5)CC4)cc13)-c1cc3c(c(=O)n1C2)COC(=O)[C@]3(O)CC [irinotecan]
- growth delay ([4]; alone, 25mg/kg i.p. days 0,4,8, mean±SD, n = 6): 6.2 ± 4.6 days
